Data published in article PMC6125646, “Proceeding From in vivo Functions of Pheromone Receptors: Peripheral-Coding Perception of Pheromones From Three Closely Related Species, Helicoverpa armigera, H. assulta, and Heliothis virescens” (Frontiers in Physiology, 2018).

Experiments:
Assay in all cases: single sensillum recording, transgenic fly at1 neurons
[1] = test system: T1, HvirOR16; design: species or system Heliothis virescens; conditions: agonist; mass loaded on filter paper in stimulus cartridge (10 μL in paraffin oil), 300 ms pulse; not a molar concentration
T1 construct: gene OR16; ORF in pVALIUM20, UAS-OR transgene expressed in Drosophila at1 neurons (Or67dGAL4 knock-in), host endogenous Orco; with Odorant receptor coreceptor (Drosophila melanogaster, endogenous in host neuron)

[2] = biological target: T2, HarmOR16 (Helicoverpa armigera, UniProt A0A7D5JJ30); conditions: agonist; mass loaded on filter paper in stimulus cartridge (10 μL in paraffin oil), 300 ms pulse; not a molar concentration
T2 construct: ORF in pVALIUM20, UAS-OR transgene expressed in Drosophila at1 neurons (Or67dGAL4 knock-in), host endogenous Orco; with Odorant receptor coreceptor (Drosophila melanogaster, endogenous in host neuron)
T2 sequence (A0A7D5JJ30 1-422): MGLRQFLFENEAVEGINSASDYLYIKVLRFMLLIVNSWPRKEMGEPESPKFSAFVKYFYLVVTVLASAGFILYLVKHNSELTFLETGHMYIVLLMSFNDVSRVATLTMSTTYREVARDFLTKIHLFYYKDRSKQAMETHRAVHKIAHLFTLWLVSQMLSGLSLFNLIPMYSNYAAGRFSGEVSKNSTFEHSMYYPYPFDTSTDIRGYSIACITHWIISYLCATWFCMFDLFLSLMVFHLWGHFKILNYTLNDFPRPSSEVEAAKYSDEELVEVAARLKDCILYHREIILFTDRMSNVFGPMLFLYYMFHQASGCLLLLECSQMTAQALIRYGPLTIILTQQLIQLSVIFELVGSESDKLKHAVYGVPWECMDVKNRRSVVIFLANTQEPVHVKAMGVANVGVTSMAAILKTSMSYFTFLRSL
T2 sequence (Q9VNB5 1-486 partner): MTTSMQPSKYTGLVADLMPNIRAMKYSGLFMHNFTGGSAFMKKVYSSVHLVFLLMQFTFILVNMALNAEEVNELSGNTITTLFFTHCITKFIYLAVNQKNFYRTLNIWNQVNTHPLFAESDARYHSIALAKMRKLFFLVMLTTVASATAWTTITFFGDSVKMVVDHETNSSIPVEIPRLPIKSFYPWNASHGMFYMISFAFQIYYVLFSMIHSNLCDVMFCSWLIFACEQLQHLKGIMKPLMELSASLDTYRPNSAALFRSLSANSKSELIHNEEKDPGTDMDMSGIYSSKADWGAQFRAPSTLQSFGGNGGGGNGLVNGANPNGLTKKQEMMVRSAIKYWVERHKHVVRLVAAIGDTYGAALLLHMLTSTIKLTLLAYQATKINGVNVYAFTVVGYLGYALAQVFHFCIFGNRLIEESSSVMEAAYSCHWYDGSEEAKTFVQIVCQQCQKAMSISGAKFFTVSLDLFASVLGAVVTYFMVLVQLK

[3] = test system: T3, HvirOR6; design: species or system Heliothis virescens; conditions: agonist; mass loaded on filter paper in stimulus cartridge (10 μL in paraffin oil), 300 ms pulse; not a molar concentration
T3 construct: gene OR6; ORF in pVALIUM20, UAS-OR transgene expressed in Drosophila at1 neurons (Or67dGAL4 knock-in), host endogenous Orco; with Odorant receptor coreceptor (Drosophila melanogaster, endogenous in host neuron)

[4] = biological target: T4, HassOR6 (Helicoverpa assulta, UniProt R4JLZ7); conditions: agonist; mass loaded on filter paper in stimulus cartridge (10 μL in paraffin oil), 300 ms pulse; not a molar concentration
T4 construct: gene OR6; ORF in pVALIUM20, UAS-OR transgene expressed in Drosophila at1 neurons (Or67dGAL4 knock-in), host endogenous Orco; with Odorant receptor coreceptor (Drosophila melanogaster, endogenous in host neuron)
T4 sequence (R4JLZ7 1-425): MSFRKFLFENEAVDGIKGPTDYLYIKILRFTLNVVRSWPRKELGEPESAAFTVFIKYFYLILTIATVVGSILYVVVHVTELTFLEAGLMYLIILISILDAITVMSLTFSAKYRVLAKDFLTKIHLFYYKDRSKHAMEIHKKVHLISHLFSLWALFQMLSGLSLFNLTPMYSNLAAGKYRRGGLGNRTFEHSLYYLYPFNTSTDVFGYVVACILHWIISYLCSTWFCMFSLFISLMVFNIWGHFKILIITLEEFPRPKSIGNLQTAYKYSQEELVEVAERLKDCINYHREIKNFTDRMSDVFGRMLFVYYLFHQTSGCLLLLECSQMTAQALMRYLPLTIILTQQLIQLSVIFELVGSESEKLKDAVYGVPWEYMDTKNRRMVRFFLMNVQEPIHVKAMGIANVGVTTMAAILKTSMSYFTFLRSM
T4 sequence (Q9VNB5 1-486 partner): T2 sequence (Q9VNB5 1-486 partner)

[5] = biological target: T5, HarmOR6 (Helicoverpa armigera, UniProt R4JSE3); conditions: agonist; mass loaded on filter paper in stimulus cartridge (10 μL in paraffin oil), 300 ms pulse; not a molar concentration
T5 construct: gene OR6; ORF in pVALIUM20, UAS-OR transgene expressed in Drosophila at1 neurons (Or67dGAL4 knock-in), host endogenous Orco; with Odorant receptor coreceptor (Drosophila melanogaster, endogenous in host neuron)
T5 sequence (R4JSE3 1-425): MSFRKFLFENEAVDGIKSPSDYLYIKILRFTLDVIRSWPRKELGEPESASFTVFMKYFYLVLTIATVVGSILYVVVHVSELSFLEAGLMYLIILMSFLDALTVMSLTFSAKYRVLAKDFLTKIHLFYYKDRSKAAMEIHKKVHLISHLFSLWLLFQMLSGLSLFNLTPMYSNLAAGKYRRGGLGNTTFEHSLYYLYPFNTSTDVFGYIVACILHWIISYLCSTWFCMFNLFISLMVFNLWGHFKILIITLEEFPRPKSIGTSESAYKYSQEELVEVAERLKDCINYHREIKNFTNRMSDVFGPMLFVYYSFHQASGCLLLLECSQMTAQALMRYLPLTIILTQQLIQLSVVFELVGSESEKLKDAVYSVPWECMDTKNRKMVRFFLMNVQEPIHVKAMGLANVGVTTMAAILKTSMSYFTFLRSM
T5 sequence (Q9VNB5 1-486 partner): T2 sequence (Q9VNB5 1-486 partner)

[6] = test system: T6, HvirOR13; design: species or system Heliothis virescens; conditions: agonist; mass loaded on filter paper in stimulus cartridge (10 μL in paraffin oil), 300 ms pulse; not a molar concentration
T6 construct: gene OR13; ORF in pVALIUM20, UAS-OR transgene expressed in Drosophila at1 neurons (Or67dGAL4 knock-in), host endogenous Orco; with Odorant receptor coreceptor (Drosophila melanogaster, endogenous in host neuron)

[7] = biological target: T7, HarmOR13 (Helicoverpa armigera, UniProt A0A075TD52); conditions: agonist; mass loaded on filter paper in stimulus cartridge (10 μL in paraffin oil), 300 ms pulse; not a molar concentration
T7 construct: gene OR13; ORF in pVALIUM20, UAS-OR transgene expressed in Drosophila at1 neurons (Or67dGAL4 knock-in), host endogenous Orco; with Odorant receptor coreceptor (Drosophila melanogaster, endogenous in host neuron)
T7 sequence (A0A075TD52 1-425): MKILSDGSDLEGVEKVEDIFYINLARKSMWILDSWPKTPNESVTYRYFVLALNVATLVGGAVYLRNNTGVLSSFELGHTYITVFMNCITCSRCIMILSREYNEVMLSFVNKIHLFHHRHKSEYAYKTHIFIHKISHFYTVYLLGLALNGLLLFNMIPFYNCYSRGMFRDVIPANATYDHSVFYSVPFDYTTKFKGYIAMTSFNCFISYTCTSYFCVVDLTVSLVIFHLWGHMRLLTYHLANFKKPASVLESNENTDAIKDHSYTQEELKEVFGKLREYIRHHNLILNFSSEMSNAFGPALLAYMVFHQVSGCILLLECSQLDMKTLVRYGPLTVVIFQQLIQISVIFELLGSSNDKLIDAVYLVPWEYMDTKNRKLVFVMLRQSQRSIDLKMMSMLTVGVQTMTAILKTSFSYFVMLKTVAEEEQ
T7 sequence (Q9VNB5 1-486 partner): T2 sequence (Q9VNB5 1-486 partner)

[8] = biological target: T8, HassOR13 (Helicoverpa assulta, UniProt A0A0B4ZYC6); conditions: agonist; mass loaded on filter paper in stimulus cartridge (10 μL in paraffin oil), 300 ms pulse; not a molar concentration
T8 construct: gene OR13; ORF in pVALIUM20, UAS-OR transgene expressed in Drosophila at1 neurons (Or67dGAL4 knock-in), host endogenous Orco; with Odorant receptor coreceptor (Drosophila melanogaster, endogenous in host neuron)
T8 sequence (A0A0B4ZYC6 1-425): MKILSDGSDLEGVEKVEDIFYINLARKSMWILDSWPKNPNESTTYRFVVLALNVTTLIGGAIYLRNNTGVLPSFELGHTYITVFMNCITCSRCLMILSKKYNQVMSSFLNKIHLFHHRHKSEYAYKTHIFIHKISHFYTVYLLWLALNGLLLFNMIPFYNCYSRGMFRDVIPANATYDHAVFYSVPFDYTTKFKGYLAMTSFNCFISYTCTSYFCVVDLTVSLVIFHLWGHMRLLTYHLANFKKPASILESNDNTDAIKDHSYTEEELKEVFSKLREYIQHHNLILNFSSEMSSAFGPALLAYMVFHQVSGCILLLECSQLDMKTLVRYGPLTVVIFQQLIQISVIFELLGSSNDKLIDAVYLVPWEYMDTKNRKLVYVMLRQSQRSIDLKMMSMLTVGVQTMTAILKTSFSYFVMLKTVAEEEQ
T8 sequence (Q9VNB5 1-486 partner): T2 sequence (Q9VNB5 1-486 partner)

[9] = biological target: T2, HarmOR16; type: cell-based; conditions: agonist; odorant on filter paper in stimulus cartridge, 300 ms pulse

With `CCCC/C=C\CCCCCCCCCCO` [Z11-16:OH, (Z)-11-hexadecenol] the EC50 [1] was 3.89e-05 g and the EC50 [2] was 7.94e-05 g.

`CCCC/C=C\CCCCCCCC=O` [Z9-14:Ald, (Z)-9-tetradecenal] was tested, and the EC50 [3] was 2.75e-05 g and the EC50 [2] was 0.00126 g.

For `CCCC/C=C\CCCCCCCCO` [Z9-14:OH], the EC50 [4] was 9.66e-05 g, the EC50 [3] was 0.000126 g and the EC50 [5] was 3.85e-05 g.

`CCCC/C=C\CCCCCCCCCC=O` [Z11-16:Ald, (Z)-11-hexadecenal] gave an EC50 [6] of 0.000216 g, an EC50 [7] of 0.000213 g and an EC50 [8] of 0.000242 g.

`CCCCCC/C=C\CCCCCCCCO` [Z9-16:OH, (Z)-9-hexadecenol] was tested, and the EC50 [4] was 5.99e-05 g and the EC50 [5] was 5.84e-05 g.

In the case of `CCCC/C=C\CCCCCCCCCCOC(C)=O` [Z11-16:OAc, (Z)-11-hexadecenyl acetate], the EC50 [1] is reported as 8.88e-05 g and the “single sensillum recording, transgenic fly at1 neurons” value [9] is reported as “responded to the sex pheromone components Z9-14:Ald, Z11-16:OH, and Z11-16:OAc”.
